Test results as given in patent publication US20210347662A1, “METHODS AND APPARATUS FOR CONTROLLING OR […] TIDE” (priority 2020, published 2021).

These compounds were tested on K. brevis (assay: K. brevis cell count in test tubes of sea water after adding red tide inhibitors). Details: 10 ml Gulf of Mexico sea water, initial count at least 1 million K. brevis cells per liter; one drop of concentrated solution or 5 mg solid; counted after two minutes.
Assay type: cell-based, Karenia brevis
Experimental: Experiments were performed to determine the K. brevis count with various red tide inhibitors.
A microscope with magnification up to 2500 times, was used along with a gridded Sedgewick-Rafter counting slide to record K. brevis cell counts. Testing was performed on Gulf of Mexico sea water containing K. brevis with an initial K. brevis cell count of at least 1 million K. brevis cells per liter. Test tubes contained 10 ml. each of this sea water, to which the following salts and other chemicals were added. For a concentrated solution of the additive, one drop is added and for solid additives, 5 mg is added. The test tubes contents containing the additives were gently mixed and then counts tabulated after two minutes.
Table 1 identifies the additives tested and the resultant cell count.

Compound	Cell Count
[O]=[Ca] [Solid calcium oxide, calcium oxide]	None
calcium sulfate [Concentrated calcium sulfate solution]	None
CN(C)c1ccc2nc3ccc(=[N+](C)C)cc-3sc2c1 [Dilute methylene blue solution, methylene blue]	Very few
[Cl-].[Na+] [Concentrated salt solution, sodium chloride]	None
O=S(=O)([O-])[O-].[Cu+2] [Concentrated copper sulfate solution, copper sulfate]	None
O=S(=O)([O-])[O-].[Mg+2] [Concentrated magnesium sulfate solution, magnesium sulfate]	None

What follows are compounds tested on K. brevis (assay: Microscope slide droplet test of additives on living K. brevis). Details: microscopy; drop of Gulf of Mexico marine water with at least hundreds of living K. brevis organisms to start; a droplet of additive solution or about 1 to 0 mg solid added.
Assay type: cell-based, Karenia brevis

Compound	Experimental Results
[Ca+2].[OH-].[OH-] [calcium hydroxide]	No living K. brevis
CN.Cl [methylammonium chloride]	No living K. brevis
calcium sulfate [Concentrated calcium sulfate solution]	No living K. brevis
CN(C)c1ccc2nc3ccc(=[N+](C)C)cc-3sc2c1 [Dilute methylene blue solution, methylene blue]	No living K. brevis
[Cl-].[Na+] [Concentrated salt solution, sodium chloride]	No living K. brevis
C[N+](C)(C)C.[Cl-] [tetamethylammonium chloride]	No living K. brevis
O=S(=O)([O-])[O-].[Cu+2] [Concentrated copper sulfate solution, copper sulfate]	No living K. brevis
O=S(=O)([O-])[O-].[Mg+2] [Concentrated magnesium sulfate solution, magnesium sulfate]	No living K. brevis
